Measured values: ChEMBL document CHEMBL5233250, “Factor XIIIa inhibitors as potential novel drugs for venous thromboembolism” (Eur J Med Chem, 2020)
Numbered stars: 1 amine (or outer) side, 2 acyl side, 3 side chain; on linkers, the order of the positions; unused ones are H or OH. Square brackets hold non-standard residues; d marks the D form. Peptide text beside a SMILES is read from it. * marks the point of attachment. ξ: configuration not given here. X2 = COC(=O)/C=C/CC[C@H](N[*:1])C(=O)[*:2]; Ile(3ξ) = CCC(C)[C@H](N)C(=O)O; X4 = CCOC(=O)c1nc(C(=O)*)cs1; X3 = O=C(c1nc2ccccc2[nH]1)*; Nle = CCCC[C@H](N)C(=O)O; X1 = Cc1nc(C(=O)*)cs1

Tests used:
[1] = target: T1, Coagulation factor XIII A chain (Bos taurus) (UniProt P12260); experiment: Inhibition of bovine plasma coagulation factor XIIIa assessed as threshold concentration by measuring insoluble fibrin per total fibrin incubated for 30 mins in presence of bovine fibrin by biuret method; assay type: cell-free
T1 sequence (whole entry): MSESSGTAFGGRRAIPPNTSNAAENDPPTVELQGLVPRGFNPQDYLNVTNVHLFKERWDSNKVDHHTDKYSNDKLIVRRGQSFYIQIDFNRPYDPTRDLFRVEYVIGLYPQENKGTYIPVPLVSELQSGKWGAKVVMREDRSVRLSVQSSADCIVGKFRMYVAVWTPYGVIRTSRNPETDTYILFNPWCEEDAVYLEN

[2] = target: T2, Coagulation factor XIII A chain (Homo sapiens, UniProt P00488); experiment: Inhibition of human coagulation factor XIIIa
T2 sequence (P00488 whole entry): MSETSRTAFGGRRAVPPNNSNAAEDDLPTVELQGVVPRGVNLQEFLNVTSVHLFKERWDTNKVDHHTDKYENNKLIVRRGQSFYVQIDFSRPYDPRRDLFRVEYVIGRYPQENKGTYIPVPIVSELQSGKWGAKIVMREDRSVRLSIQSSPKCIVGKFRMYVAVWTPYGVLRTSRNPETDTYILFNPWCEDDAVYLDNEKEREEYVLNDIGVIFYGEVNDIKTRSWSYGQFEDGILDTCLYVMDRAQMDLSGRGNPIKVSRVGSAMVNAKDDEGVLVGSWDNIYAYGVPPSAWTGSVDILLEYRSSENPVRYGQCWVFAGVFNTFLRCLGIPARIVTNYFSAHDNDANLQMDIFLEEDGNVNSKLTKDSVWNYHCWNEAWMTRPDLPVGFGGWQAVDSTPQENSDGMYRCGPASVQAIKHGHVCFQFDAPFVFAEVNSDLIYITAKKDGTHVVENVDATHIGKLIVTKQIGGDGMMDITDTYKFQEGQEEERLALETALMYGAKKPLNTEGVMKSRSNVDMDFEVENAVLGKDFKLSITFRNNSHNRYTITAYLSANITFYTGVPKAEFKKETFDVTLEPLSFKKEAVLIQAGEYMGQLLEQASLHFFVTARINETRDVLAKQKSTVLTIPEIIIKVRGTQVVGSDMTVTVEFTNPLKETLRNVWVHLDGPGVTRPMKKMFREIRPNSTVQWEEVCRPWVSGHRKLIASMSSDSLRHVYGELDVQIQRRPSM

[3] = target: T3, Coagulation factor XIII A chain (Homo sapiens) (UniProt P00488); experiment: Binding affinity to human plasma coagulation factor XIIIa assessed as rate constant in presence of GSH by DTNB based UV-fluorescence assay; assay type: cell-free
T3 sequence (whole entry): T2 sequence (P00488 whole entry)

[4] = Ratio of rate constant for human plasma coagulation factor XIIIa to rate constant for Glutathione (unknown origin)
Canis familiaris [5] = experiment: Antithrombotic activity in Mongrel dog model of electrically-induced coronary artery thrombosis assessed as time to occlusion at 0.1 mg/kg,iv pre-administered for 15 mins followed by electric impulse stimulation and t-PA and measured after 90 mins; assay type: functional, Canis lupus familiaris; details: time 105 min, 1.75 h
Canis familiaris [6] = experiment: Antithrombotic activity in Mongrel dog model of electrically-induced coronary artery thrombosis assessed as time to reperfusion at 0.1 mg/kg,iv pre-administered for 15 mins followed by electric impulse stimulation and t-PA and measured after 90 mins; assay type: functional, Canis lupus familiaris; details: time 105 min, 1.75 h
Canis familiaris [7] = experiment: Antithrombotic activity in Mongrel dog model of electrically-induced coronary artery thrombosis assessed as re-occlusion rate at 0.1 mg/kg,iv pre-administered for 15 mins followed by electric impulse stimulation and t-PA and measured after 90 mins; assay type: functional, Canis lupus familiaris; details: time 105 min, 1.75 h
Canis familiaris [8] = experiment: Antithrombotic activity in Mongrel dog model of electrically-induced coronary artery thrombosis assessed as reduction in residual thrombus mass at 0.1 mg/kg,iv pre-administered for 15 mins followed by electric impulse stimulation and t-PA and measured after 90 mins; assay type: functional, Canis lupus familiaris; details: time 105 min, 1.75 h
[9] = Inhibition of transglutaminase in guinea pig liver assessed as inhibition constant using Z-Gln-Gly as substrate by Michaelis-Menten analysis; assay type: tissue-based, Cavia porcellus
[10] = target: T2, Coagulation factor XIII A chain; experiment: Inhibition of human recombinant coagulation factor XIIIa
[11] = target: T3, Coagulation factor XIII A chain (Homo sapiens); experiment: Inhibition of human coagulation factor XIIIa assessed as maximal efficacy upto 20 nM
Homo sapiens [12] = species: Homo sapiens; experiment: Selectivity index, ratio of IC50 for inhibition of human coagulation factor XIIIa to IC50 for inhibition of human alpha-thrombin
Homo sapiens [13] = species: Homo sapiens; experiment: Selectivity index, ratio of IC50 for inhibition of human coagulation factor XIIIa to IC50 for inhibition of human Factor Xa
[14] = Selectivity index, ratio of IC50 for inhibition of human coagulation factor XIIIa to IC50 for inhibition of papain (unknown origin)
[15] = target: T3, Coagulation factor XIII A chain (Homo sapiens); experiment: Inhibition of human coagulation factor XIIIa assessed as enzyme residual activity at 100 uM in presence of polybrene by Spectrofluorometric assay
[16] = target: T3, Coagulation factor XIII A chain (Homo sapiens); experiment: Inhibition of human coagulation factor XIIIa assessed as maximal inhibition of factor 13a mediated fibrin polymerization at 5 to 500 uM incubated for 24 hrs by SDS-PAGE analysis; details: dose 5-500 µM
[17] = target: T2, Coagulation factor XIII A chain; experiment: Inhibition of human plasma coagulation factor XIIIa by fluorescence spectrophotometeric assay; assay type: cell-free
[18] = target: T2, Coagulation factor XIII A chain; experiment: Inhibition of human coagulation factor XIIIa assessed as inhibition of factor 13a mediated crosslinking of fibronectin-collagen incubated for 2 hrs by SDS-PAGE analysis
[19] = Half life in New Zealand White rabbit at iv dosed upto 8 hrs by HPLC method; assay type: ADME, organism-based, Oryctolagus cuniculus; details: in vivo
[20] = Total clearance in New Zealand White rabbit at iv dosed upto 8 hrs by HPLC method; assay type: ADME, organism-based, Oryctolagus cuniculus; details: in vivo
[21] = Plasma concentration in New Zealand White rabbit at iv dosed upto 8 hrs by HPLC method; assay type: ADME, organism-based, Oryctolagus cuniculus
[22] = target: T2, Coagulation factor XIII A chain; experiment: Inhibition of human plasma coagulation factor XIIIa; assay type: cell-free
[23] = target: T4, Protein-glutamine gamma-glutamyltransferase (Homo sapiens, UniProt P21980); experiment: Inhibition of tissue transglutaminase (unknown origin); assay type: tissue-based
T4 sequence (P21980 whole entry): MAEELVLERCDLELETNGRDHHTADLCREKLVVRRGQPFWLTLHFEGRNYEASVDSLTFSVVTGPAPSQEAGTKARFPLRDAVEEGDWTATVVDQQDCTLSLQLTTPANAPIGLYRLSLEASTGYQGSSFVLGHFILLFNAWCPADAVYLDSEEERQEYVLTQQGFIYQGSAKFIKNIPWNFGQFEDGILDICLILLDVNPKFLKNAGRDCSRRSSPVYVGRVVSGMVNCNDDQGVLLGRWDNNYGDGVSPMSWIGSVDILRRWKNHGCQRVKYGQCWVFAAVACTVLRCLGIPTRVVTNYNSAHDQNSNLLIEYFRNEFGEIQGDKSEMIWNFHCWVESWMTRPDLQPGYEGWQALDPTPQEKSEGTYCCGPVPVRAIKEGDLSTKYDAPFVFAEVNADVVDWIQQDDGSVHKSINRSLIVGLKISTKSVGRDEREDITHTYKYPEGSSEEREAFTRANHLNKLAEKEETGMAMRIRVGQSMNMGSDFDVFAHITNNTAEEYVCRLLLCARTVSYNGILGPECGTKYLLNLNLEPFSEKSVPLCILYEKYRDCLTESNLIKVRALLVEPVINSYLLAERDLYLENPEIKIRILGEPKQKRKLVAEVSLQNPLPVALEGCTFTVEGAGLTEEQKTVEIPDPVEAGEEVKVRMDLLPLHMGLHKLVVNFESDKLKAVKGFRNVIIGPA

Cc1ccc(S(=O)(=O)NCCCCCC(=O)CCl)cc1
Activity [1]: 0.05 µg/mL

CC(=O)NCCc1ccc(O)cc1
IC50 [2]: 200 nM

CC(=O)CSc1n(C)cc[n+]1C
K [3]: 0.35 10^4/M/s | Ratio [4]: 1.9 10^6No_unit

CC(=O)CSc1n[n+]2c(C)csc2s1
Time (Canis familiaris [5]): 44.4 min | Time (Canis familiaris [6]): 16.4 min | Activity (Canis familiaris [7]): 75% | Activity (Canis familiaris [8]): 1.7 mg

NCCCCCNC(=S)Nc1ccccc1
Ki [9]: 49000 nM

CCOC(=O)c1nc(C(=O)N[C@@H](CC/C=C/C(=O)OC)C(=O)N[C@@H](CC(C)C)C(=O)N[C@H](C(=O)N[C@@H](CC(C)C)C(=O)N2CCC[C@H]2C(=O)N[C@@H](Cc2c[nH]c3ccccc23)C(=O)N2CCC[C@H]2C(N)=O)C(C)CC)cs1 (stereo partly drawn) (X4-[X2]L[Ile(3ξ)]LPWP-NH2)
IC50 [10]: 29 nM

Cc1ccc(S(=O)(=O)NCCCCNC(=O)CCl)cc1
Activity [1]: 15 µg/mL

CC(=O)CSc1n(C)c(C)c(C)[n+]1C
K [3]: 6.3 10^4/M/s | Ratio [4]: 3.9 10^4No_unit

O=c1c(OS(=O)(=O)O)c(-c2ccc(OS(=O)(=O)O)c(OS(=O)(=O)O)c2)oc2cc(OS(=O)(=O)O)cc(OCCOc3cc(-c4oc5cc(OS(=O)(=O)O)cc(OCCOc6cc(OS(=O)(=O)O)cc7oc(-c8ccc(OS(=O)(=O)O)c(OS(=O)(=O)O)c8)c(OS(=O)(=O)O)c(=O)c67)c5c(=O)c4OS(=O)(=O)O)ccc3OS(=O)(=O)O)c12
Efficacy [11]: 98% | Ratio IC50 (Homo sapiens [12]): 26 | Ratio IC50 (Homo sapiens [13]): 9 | Ratio IC50 [14]: 27 | Activity [15]: 85% | Efficacy [16]: 100%

O=C(O)CCCCCc1cc1=O
IC50 [17]: 1900 nM

Cc1ccc(C(=O)NCCCCCC(=O)CCl)cc1
Activity [1]: 0.8 µg/mL

NC(=O)CI
K [3]: 0.8 10^4/M/s | Ratio [4]: 5 10^3No_unit

Cc1c(C)[n+](C)c(SCC(=O)CSc2nnnn2C)n1C
K [3]: 4.9 10^4/M/s | Ratio [4]: 4.1 10^6No_unit

NCCCCNCCCN [SPERMIDINE]
IC50 [18]: 100000 nM

O=C(O)CCCCCCCc1cc1=O
IC50 [17]: 610 nM

Cc1ccc(S(=O)(=O)N(C)CCCCCC(=O)CCl)cc1
Activity [1]: 0.1 µg/mL

O=C(CCCCCCCc1cc1=O)NCCc1ccccc1
IC50 [17]: 26 nM

O=[N+]([O-])c1ccccc1S(=O)(=O)NCCCCCCNc1nsc2nccn12
half-life [19]: 7.8 min | clearance [20]: > 63.3 mL/min/kg | concentration at 8 h [21]: 80 µM

O=C1C(OS(=O)(=O)O)=C(c2ccc(OS(=O)(=O)O)c(OCCCOc3cc(OS(=O)(=O)O)cc4oc(-c5ccc(OS(=O)(=O)O)c(OS(=O)(=O)O)c5)c(OS(=O)(=O)O)c(=O)c34)c2)OC2C=C(OS(=O)(=O)O)C=C(OCCCOc3cc(OS(=O)(=O)O)cc4oc(-c5ccc(OS(=O)(=O)O)c(OS(=O)(=O)O)c5)c(OS(=O)(=O)O)c(=O)c34)C12 (stereo not drawn)
IC50 [2]: 118000 nM | Efficacy [11]: 93%

O=C(CCl)CCCCCNS(=O)(=O)c1ccc(Cl)cc1
Activity [1]: 0.2 µg/mL

CCCC[C@H](NC(=O)[C@H](CC/C=C/C(=O)OC)NC(=O)c1csc(C)n1)C(=O)N[C@H](C(=O)N[C@@H](CC(C)C)C(=O)N1CCC[C@H]1C(=O)N[C@@H](Cc1c[nH]c2ccccc12)C(N)=O)C(C)CC (stereo partly drawn) (X1-[X2][Nle][Ile(3ξ)]LPW-NH2)
IC50 [10]: 139 nM

CCC(C)[C@H](NC(=O)[C@H](CC(C)C)NC(=O)[C@H](CC/C=C/C(=O)OC)NC(=O)c1nc2ccccc2[nH]1)C(=O)N[C@@H](CC(C)C)C(=O)N1CCC[C@H]1C(=O)N[C@@H](Cc1c[nH]c2ccccc12)C(=O)N1CCC[C@H]1C(N)=O (stereo partly drawn) (X3-[X2]L[Ile(3ξ)]LPWP-NH2)
IC50 [10]: 102 nM

O=C(O)CCCCCCCCCCc1cc1=O
IC50 [17]: 310 nM

CC(=O)CSc1n(C)c(-c2ccccc2)c(-c2ccccc2)[n+]1C
IC50 [22]: 350 nM

Cc1ccc(S(=O)(=O)NCCCCCCCCCCC(=O)CCl)cc1
Activity [1]: 50 µg/mL

Cc1ccc(S(=O)(=O)NCCCCOC(=O)CCl)cc1
Activity [1]: 40 µg/mL

C[C@@H]1CCC/C=C\C(=O)Cc2cc(O)cc(O)c2C(=O)O1
IC50 [23]: 3100 nM

NCCCNCCCCNCCCN [SPERMINE]
IC50 [18]: 100000 nM
